Data as given in ChEMBL document CHEMBL1201862, “PubChem BioAssay data set” (2004).
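Protocol summary: plate cells (96-well), add compound at 5 concentrations, incubate 48 h, interpolate endpoints linearly. GI50: concentration for 50% inhibition of growth.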 Activity calls are given as the source filed them. Rule as the data show it: active = GI50 up to about 1.1 µM and inactive = higher.

Key:
Assay in all cases: NCI tumour cell line growth inhibition, 48 h
786-0 = test system: 786-0
A498 = test system: A498
A549 = test system: A549
ACHN = test system: ACHN
BT-549 = test system: BT-549
CAKI-1 = test system: CAKI-1
CCRF-CEM = test system: CCRF-CEM
COLO 205 = test system: COLO 205
DU-145 = test system: DU-145
EKVX = test system: EKVX
HCC 2998 = test system: HCC 2998
HCT-116 = test system: HCT-116
HCT-15 = test system: HCT-15
HL-60 = test system: HL-60
HOP-62 = test system: HOP-62
HOP-92 = test system: HOP-92
HT-29 = test system: HT-29
Hs-578T = test system: Hs-578T
IGROV-1 = test system: IGROV-1
K562 = test system: K562
KM12 = test system: KM12
LOX IMVI = test system: LOX IMVI
M14 = test system: M14
MCF7 = test system: MCF7
MDA-MB-231 = test system: MDA-MB-231
MDA-MB-435 = test system: MDA-MB-435
MDA-N = test system: MDA-N
MOLT-4 = test system: MOLT-4
Malme-3M = test system: Malme-3M
NCI-H226 = test system: NCI-H226
NCI-H23 = test system: NCI-H23
NCI-H460 = test system: NCI-H460
NCI-H522 = test system: NCI-H522
NCI/ADR-RES = test system: NCI/ADR-RES
OVCAR-3 = test system: OVCAR-3
OVCAR-4 = test system: OVCAR-4
OVCAR-5 = test system: OVCAR-5
OVCAR-8 = test system: OVCAR-8
PC-3 = test system: PC-3
RPMI-8226 = test system: RPMI-8226
RXF 393 = test system: RXF 393
SF-268 = test system: SF-268
SF-295 = test system: SF-295
SF-539 = test system: SF-539
SK-MEL-28 = test system: SK-MEL-28
SK-MEL-2 = test system: SK-MEL-2
SK-MEL-5 = test system: SK-MEL-5
SN12C = test system: SN12C
SNB-19 = test system: SNB-19
SNB-75 = test system: SNB-75
SR = test system: SR
SW-620 = test system: SW-620
T47D = test system: T47D
TK-10 = test system: TK-10
U-251 = test system: U-251
UACC-257 = test system: UACC-257
UO-31 = test system: UO-31
SK-OV-3 = test system: SK-OV-3

In the case of `CCCCc1cc2c(C)cc(=O)oc2c(O)c1O`, the GI50 (786-0) is reported as 33.9 µM (inactive), the GI50 (A498) is reported as 26.5 µM (inactive) and the GI50 (A549) is reported as 33.2 µM (inactive). For the same compound, the GI50 (ACHN) was 33 µM (inactive), the GI50 (BT-549) was 14.6 µM (inactive) and the GI50 (CAKI-1) was 23.4 µM (inactive). The GI50 (CCRF-CEM) was 21.3 µM (inactive), the GI50 (COLO 205) was 25.8 µM (inactive) and the GI50 (DU-145) was 32.2 µM (inactive). For the same compound, the GI50 (EKVX) was 52.8 µM (inactive), the GI50 (HCC 2998) was 3.15 µM (inactive) and the GI50 (HCT-116) was 30.5 µM (inactive). The GI50 (HCT-15) was 26.9 µM, the GI50 (HL-60) was 18.1 µM (inactive) and the GI50 (HOP-62) was 23.3 µM (inactive). The GI50 (HOP-92) was 19.4 µM (inactive), the GI50 (HT-29) was 27.9 µM (inactive) and the GI50 (Hs-578T) was 22.9 µM (inactive). The GI50 (IGROV-1) was 24.6 µM (inactive), the GI50 (K562) was 27.4 µM (inactive) and the GI50 (KM12) was 25.1 µM (inactive). The GI50 (LOX IMVI) was 20.5 µM (inactive), the GI50 (M14) was 31.6 µM (inactive) and the GI50 (MCF7) was 21.4 µM (inactive). The GI50 (MDA-MB-231) was 13.6 µM (inactive), the GI50 (MDA-MB-435) was 30.6 µM (inactive) and the GI50 (MDA-N) was 38.5 µM (inactive). The GI50 (MOLT-4) was 25.2 µM (inactive), the GI50 (Malme-3M) was 27.8 µM (inactive) and the GI50 (NCI-H226) was 23.9 µM (inactive). The GI50 (NCI-H23) was 34.9 µM (inactive), the GI50 (NCI-H460) was 22.6 µM (inactive) and the GI50 (NCI-H522) was 21.5 µM (inactive). For the same compound, the GI50 (NCI/ADR-RES) was 22.6 µM (inactive), the GI50 (OVCAR-3) was 29.1 µM (inactive) and the GI50 (OVCAR-4) was 32.1 µM (inactive). The GI50 (OVCAR-5) was 69.7 µM (inactive), the GI50 (OVCAR-8) was 31.6 µM (inactive) and the GI50 (PC-3) was 21.3 µM (inactive). For the same compound, the GI50 (RPMI-8226) was 17.5 µM (inactive), the GI50 (RXF 393) was 24.8 µM (inactive) and the GI50 (SF-268) was 38.8 µM (inactive). The GI50 (SF-295) was 22.2 µM (inactive), the GI50 (SF-539) was 21.8 µM (inactive) and the GI50 (SK-MEL-28) was 37.3 µM (inactive). For the same compound, the GI50 (SK-MEL-2) was 3.6 µM (inactive), the GI50 (SK-MEL-5) was 20.7 µM (inactive) and the GI50 (SN12C) was 32.4 µM (inactive). The GI50 (SNB-19) was 37.9 µM (inactive), the GI50 (SNB-75) was 27.1 µM (inactive) and the GI50 (SR) was 18 µM (inactive). For the same compound, the GI50 (SW-620) was 28.2 µM (inactive), the GI50 (T47D) was 21.7 µM (inactive) and the GI50 (TK-10) was 85.9 µM (inactive). For the same compound, the GI50 (U-251) was 23.7 µM (inactive), the GI50 (UACC-257) was 20.4 µM (inactive) and the GI50 (UO-31) was 20.3 µM (inactive).

`CCCN(CCC)C(=S)N/N=C/c1ccccn1` was tested, and the GI50 (786-0) was < 0.01 µM (active), the GI50 (A498) was 0.0372 µM (active) and the GI50 (A549) was < 0.0138 µM (active). For the same compound, the GI50 (ACHN) was < 0.01 µM (active), the GI50 (BT-549) was 0.341 µM (active) and the GI50 (CAKI-1) was 0.0169 µM (active). For the same compound, the GI50 (CCRF-CEM) was < 0.01 µM (active), the GI50 (COLO 205) was < 0.0186 µM (active) and the GI50 (DU-145) was 0.143 µM (active). For the same compound, the GI50 (EKVX) was 0.046 µM (active), the GI50 (HCC 2998) was 0.398 µM (active) and the GI50 (HCT-116) was < 0.01 µM (active). For the same compound, the GI50 (HCT-15) was under 0.01 µM, the GI50 (HL-60) was < 0.01 µM (active) and the GI50 (HOP-62) was < 0.01 µM (active). The GI50 (HOP-92) was 0.169 µM (active), the GI50 (HT-29) was < 0.01 µM (active) and the GI50 (Hs-578T) was 2.96 µM (inactive). For the same compound, the GI50 (IGROV-1) was < 0.01 µM (active), the GI50 (K562) was < 0.01 µM (active) and the GI50 (KM12) was < 0.0139 µM (active). For the same compound, the GI50 (LOX IMVI) was < 0.01 µM (active), the GI50 (M14) was < 0.0125 µM (active) and the GI50 (MCF7) was < 0.01 µM (active). The GI50 (MDA-MB-231) was < 0.01 µM (active), the GI50 (MDA-MB-435) was 0.17 µM (active) and the GI50 (MDA-N) was 0.0989 µM (active). For the same compound, the GI50 (MOLT-4) was < 0.01 µM (active), the GI50 (Malme-3M) was 0.0463 µM (active) and the GI50 (NCI-H23) was < 0.01 µM (active). For the same compound, the GI50 (NCI-H460) was 0.0103 µM (active), the GI50 (NCI-H522) was < 0.01 µM (active) and the GI50 (NCI/ADR-RES) was < 0.01 µM (active). For the same compound, the GI50 (OVCAR-3) was < 0.01 µM (active), the GI50 (OVCAR-4) was < 0.01 µM (active) and the GI50 (OVCAR-5) was < 0.0482 µM (active). The GI50 (OVCAR-8) was < 0.01 µM (active), the GI50 (PC-3) was < 0.01 µM (active) and the GI50 (RPMI-8226) was < 0.01 µM (active). The GI50 (RXF 393) was 0.0566 µM (active), the GI50 (SF-268) was < 0.0135 µM (active) and the GI50 (SF-295) was 0.0468 µM (active). For the same compound, the GI50 (SF-539) was 0.118 µM (active), the GI50 (SK-MEL-28) was 0.17 µM (active) and the GI50 (SK-MEL-2) was < 0.0385 µM (active). The GI50 (SK-MEL-5) was < 0.0173 µM (active), the GI50 (SK-OV-3) was < 0.012 µM (active) and the GI50 (SN12C) was < 0.0195 µM (active). The GI50 (SNB-19) was 0.282 µM (active), the GI50 (SNB-75) was 0.0586 µM (active) and the GI50 (SR) was < 0.01 µM (active). The GI50 (SW-620) was < 0.014 µM (active), the GI50 (T47D) was < 0.01 µM (active) and the GI50 (TK-10) was 0.0203 µM (active). The GI50 (U-251) was < 0.0138 µM (active), the GI50 (UACC-257) was < 0.01 µM (active) and the GI50 (UO-31) was 0.0239 µM (active).
